Source: ChEMBL document CHEMBL1909294, “Translating clinical findings into knowledge in drug safety evaluation--drug induced liver injury prediction system (DILIps)” (PLoS Comput Biol, 2011)

How the values were obtained:
Hepatotoxicity [1] = tested on: Hepatotoxicity;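 on HepSE bilirubinemia: bilirubinemia hepatic side effect score drawn from the DILIps training data, a prediction system for drug-induced liver injury; call rule not given here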;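 on HepSE cholecystitis: Cholecystitis-related hepatic side effect score drawn from the DILIps (drug-induced liver injury prediction) training data set; call rule not given here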;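 on HepSE elevated liver function tests: hepatic side effect score for raised liver function tests, as recorded in the DILIps training set used for predicting drug-induced liver injury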;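 on HepSE hepatomegaly: hepatic side effect score for hepatomegaly, taken from the training set of the DILIps drug-induced liver injury prediction system; call rule not given here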;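 on HepSE jaundice: Jaundice-related hepatic side-effect score drawn from the training data of the DILIps (drug-induced liver injury prediction system); call rule not given here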; on HepSE liver disease: call rule not given here;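 on HepSE liver fatty: hepatic side effect score for fatty liver, taken from the DILIps training set for predicting drug-induced liver injury; call rule not given here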
Hepatotoxicity [2] = tested on: Hepatotoxicity; remark: listed apart in the source;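 on HepSE bilirubinemia: bilirubinemia hepatic side effect score drawn from the DILIps training data, a prediction system for drug-induced liver injury; call rule not given here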;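 on HepSE elevated liver function tests: hepatic side effect score for raised liver function tests, as recorded in the DILIps training set used for predicting drug-induced liver injury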;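 on HepSE hepatomegaly: hepatic side effect score for hepatomegaly, taken from the training set of the DILIps drug-induced liver injury prediction system; call rule not given here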;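 on HepSE jaundice: Jaundice-related hepatic side-effect score drawn from the training data of the DILIps (drug-induced liver injury prediction system); call rule not given here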; on HepSE liver disease: call rule not given here;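 on HepSE liver fatty: hepatic side effect score for fatty liver, taken from the DILIps training set for predicting drug-induced liver injury; call rule not given here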
Hepatotoxicity [3] = tested on: Hepatotoxicity; remark: listed apart in the source;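 on HepSE bilirubinemia: bilirubinemia hepatic side effect score drawn from the DILIps training data, a prediction system for drug-induced liver injury; call rule not given here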;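 on HepSE elevated liver function tests: hepatic side effect score for raised liver function tests, as recorded in the DILIps training set used for predicting drug-induced liver injury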;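 on HepSE hepatomegaly: hepatic side effect score for hepatomegaly, taken from the training set of the DILIps drug-induced liver injury prediction system; call rule not given here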;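 on HepSE jaundice: Jaundice-related hepatic side-effect score drawn from the training data of the DILIps (drug-induced liver injury prediction system); call rule not given here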; on HepSE liver disease: call rule not given here;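 on HepSE liver fatty: hepatic side effect score for fatty liver, taken from the DILIps training set for predicting drug-induced liver injury; call rule not given here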
Hepatotoxicity [4] = tested on: Hepatotoxicity; remark: listed apart in the source;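 on HepSE bilirubinemia: bilirubinemia hepatic side effect score drawn from the DILIps training data, a prediction system for drug-induced liver injury; call rule not given here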;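 on HepSE elevated liver function tests: hepatic side effect score for raised liver function tests, as recorded in the DILIps training set used for predicting drug-induced liver injury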;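 on HepSE hepatomegaly: hepatic side effect score for hepatomegaly, taken from the training set of the DILIps drug-induced liver injury prediction system; call rule not given here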;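 on HepSE jaundice: Jaundice-related hepatic side-effect score drawn from the training data of the DILIps (drug-induced liver injury prediction system); call rule not given here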; on HepSE liver disease: call rule not given here;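 on HepSE liver fatty: hepatic side effect score for fatty liver, taken from the DILIps training set for predicting drug-induced liver injury; call rule not given here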
Hepatotoxicity [5] = tested on: Hepatotoxicity; remark: listed apart in the source; on HepSE liver disease: call rule not given here
Hepatotoxicity [6] = tested on: Hepatotoxicity; remark: listed apart in the source; on HepSE liver disease: call rule not given here
Hepatotoxicity [7] = tested on: Hepatotoxicity; remark: listed apart in the source
Hepatotoxicity [8] = tested on: Hepatotoxicity; remark: listed apart in the source
Hepatotoxicity [9] = tested on: Hepatotoxicity; remark: listed apart in the source
Hepatotoxicity [10] = tested on: Hepatotoxicity; remark: listed apart in the source
Hepatotoxicity [11] = tested on: Hepatotoxicity; remark: listed apart in the source
Hepatotoxicity [12] = tested on: Hepatotoxicity; remark: listed apart in the source
Hepatotoxicity [13] = tested on: Hepatotoxicity; remark: listed apart in the source
Hepatotoxicity [14] = tested on: Hepatotoxicity; remark: listed apart in the source

Compound	HepSE_hepatomegaly (Hepatotoxicity [1])	HepSE_jaundice (Hepatotoxicity [2])	HepSE_liver fatty (Hepatotoxicity [3])	HepSE_liver disease (Hepatotoxicity [4])	HepSE_elevated liver function tests (Hepatotoxicity [5])	HepSE_bilirubinemia (Hepatotoxicity [6])	HepSE_cholecystitis (Hepatotoxicity [7])	HepSE_cholelithiasis (Hepatotoxicity [8])	HepSE_hepatic necrosis (Hepatotoxicity [9])	HepSE_cirrhosis (Hepatotoxicity [10])	HepSE_liver function tests abnormal (Hepatotoxicity [11])	HepSE_hepatic failure (Hepatotoxicity [12])	HepSE_Combined Scores (Hepatotoxicity [13])	HepSE_hepatitis (Hepatotoxicity [14])
CC(C)CN(C[C@@H](O)[C@H](Cc1ccccc1)NC(=O)O[C@H]1CCOC1)S(=O)(=O)c1ccc(N)cc1	0	0	0	0	0	0	0	0	0	0	0	0	0	0
CCOC(=O)[C@H](CCc1ccccc1)N[C@@H](C)C(=O)N1[C@H](C(=O)O)C[C@@H]2CCC[C@@H]21	0	1	0	0	0	0	0	0	1	0	0	1	4	1
[Mg]	0	0	0	0	0	0	0	0	0	0	0	0	0	0
COc1ccc(C[C@@H]2c3cc(OC)c(OC)cc3CC[N@+]2(C)CCC(=O)OCCCCCOC(=O)CC[N@@+]2(C)CCc3cc(OC)c(OC)cc3[C@H]2Cc2ccc(OC)c(OC)c2)cc1OC	0	0	0	0	0	0	0	0	0	0	0	0	0	0
O=C(CO)[C@@H](O)[C@@H](O)COP(=O)(O)O	0	0	0	0	0	0	0	0	0	0	0	0	0	0
CNS(=O)(=O)CCc1ccc2[nH]cc(C3CCN(C)CC3)c2c1	0	0	0	0	0	0	0	0	0	0	1	0	1	0
CC[C@@H](C(N)=O)N1CCCC1=O	0	0	0	0	0	0	0	0	0	0	0	1	2	1
COc1ccc(CC2c3cc(OC)c(OC)cc3CC[N+]2(C)CCC(=O)OCCCCCOC(=O)CC[N+]2(C)CCc3cc(OC)c(OC)cc3C2Cc2ccc(OC)c(OC)c2)cc1OC (configuration not stated)	0	0	0	0	0	0	0	0	0	0	0	0	0	0
CN1CCC[C@@H]1Cc1c[nH]c2ccc(CCS(=O)(=O)c3ccccc3)cc12	0	0	0	0	0	1	0	0	0	0	1	0	2	0
CCCc1nc(C)c2c(=O)[nH]c(-c3cc(S(=O)(=O)N4CCN(CC)CC4)ccc3OCC)nn12	0	0	0	0	0	0	0	0	0	0	1	0	1	0
CCOC(=O)[C@H](CCc1ccccc1)N[C@@H](C)C(=O)N1Cc2ccccc2C[C@H]1C(=O)O	0	0	0	0	0	0	0	0	0	0	1	1	3	1
CC(N)Cc1c[nH]c2ccccc12 (configuration not stated)	0	0	0	0	0	0	0	0	0	0	0	0	0	0
[Ca+2].[H-].[H-]	0	0	0	0	0	0	0	0	0	0	0	0	0	0
C=C1[C@H](CO)[C@@H](O)C[C@@H]1n1cnc2c(=O)[nH]c(N)nc21.O	1	0	0	0	0	0	0	0	0	0	0	0	2	1
Cc1c(O)cccc1C(=O)N[C@@H](CSc1ccccc1)[C@H](O)CN1C[C@H]2CCCC[C@H]2C[C@H]1C(=O)NC(C)(C)C	0	1	0	0	0	1	0	0	0	0	1	0	4	1
CCCN(CCc1ccsc1)C1CCc2c(O)cccc2C1 (configuration not stated)	0	0	0	0	0	0	0	0	0	0	0	0	0	0
N[C@@H](Cc1ccc(N(CCCl)CCCl)cc1)C(=O)O	0	1	0	0	0	0	0	0	0	0	1	0	3	1
C=CC1=C(C(=O)O)N2C(=O)[C@@H](NC(=O)/C(=N\O)c3csc(N)n3)[C@H]2SC1	0	1	0	0	0	0	0	0	0	0	0	1	3	1
